Measured values: patent publication US12655101B2, “Small molecules with antibacterial activity” (NEW MEXICO TECH UNIVERSITY RESEARCH PARK CORPORATION, priority 2021, dated 2026)

Tested on: H. pylori Hp A-4
Test: Direct comparison of Compound 26 in 5% FBS on H. pylori and A. baumannii
Format: cell-based
Method: A direct comparison of Compound 26 in 5% […] on H. pylori Hp A-4 and A. baumannii BAA-1797 was performed. The conditions were standard liquid culture conditions for each organism in 5% FBS. A lawn of H. pylori Hp A-4 on a blood agar plate was prepared. 1 μL of Compound 26 at various concentrations and 1 μL of 100% sterile DMSO were spotted on the blood agar plate. The plate was incubated for 4 days at 37° C. in 5% CO2.

Cl.Clc1ccc(N/N=C/c2c[nH]c3cccc(OCc4ccccc4)c23)cc1 [Compound 26, (E)-2-((4-(benzyloxy)-1H-indol-3-yl)methylene)-1-(4-chlorophenyl)hydrazin-1-ium]
increase in anti-bacterial activity for H. pylori compared to A. baumannii: 16.6 fold
